The source of these data is patent US20240116918A1, “SUBSTITUTED TRICYCLIC COMPOUND AS PRMT5 INHIBITOR AND USE THEREOF” (NANJING SANHOME PHARMACEUTICAL CO., LTD., priority 2019, published 2024).

The subject of this assay is NCI-H358 cells. Put plainly: In vitro cell activity, NCI-H358 cells, CCK-8. In kind it is cell-based. Particulars: NCI-H358, 168 h, human non-small cell lung cancer cells, 7 days. The protocol: Test compounds: the compounds of the present invention prepared in the above example. Each compound was formulated into a 10 mM stock solution with DMSO, and finally diluted into 8 concentrations for detection, with the final concentrations being 33333.00 nM, 6666.60 nM, 1333.32 nM, 266.66 nM, 53.33 nM, 10.67 nM, 2.13 nM, and 0.43 nM for experiments in Z-138 cells.
2.1.3 NCI-H358 cell thawing: The cryovial for NCI-H358 cells was taken out from a liquid nitrogen tank and placed in a 37° C. water bath, and shaken gently for thawing as soon as possible. After thawing, the cryovial was taken out, and sterilized with an alcohol cotton ball, after which the cap was unscrewed. The cell fluid was drawn and injected into a centrifuge tube. 1 mL of 1640 medium containing 10% FBS was added, and mixed uniformly. The tube was placed in a centrifuge, and centrifuged at 1000 rpm for 5 min. Afterwards, the supernatant was discarded, and complete medium was added. The mixture was pipetted repeatedly until the cells were completely dispersed and resuspended. The mixture was inoculated in a petri dish at an appropriate concentration, and cultured in a CO2 incubator at 37° C., 5% CO2, and 95% humidified air.
2.2.3 NCI-H358 cell culture and passage: The cells grew to about 80-90%. The medium (1640 medium+10% FBS+1% penicillin-streptomycin+1 mM sodium pyruvate) was transferred to a 15 mL centrifuge tube, and centrifuged at 1000 rpm for 5 min. The supernatant was removed. The cells were resuspended in complete medium, and inoculated in a petri dish at the desired density. The dish was placed in a CO2 incubator at 37° C., 5% CO2, and 95% humid air. The culture medium was changed every 2-3 days or the passage was carried out, depending on the cell growth.
After passage, NCI-H358 cells were resuspended in complete medium at the corresponding density, 1000 cells/well, and inoculated in a 96-well culture plate. The wells at the outer circumference were filled with 200 μL PBS to prevent the culture conditions of the inside plate wells from being too different from each other due to the faster evaporation of medium at the edge. The leftmost column of the 60 inner wells were blank wells, which were not added with cells, but filled with equal volume of PBS. The remaining 54 wells were subjected to cell plating with a multichannel pipette, to each well was added 100 μL. […]
The first column of PBS was used as a blank control well, and 100 μL of CCK-8 was added synchronously thereto. […] The optimal detection time was determined according to the shade of color developed by CCK-8 (the optimal OD value for the DMSO group was about 1.0). […] The microplate reader software was opened, the detection parameters were adjusted, and the absorbance at 450 nm (OD value) was detected. […]
Regarding `CC(=O)N1CCC(Nc2cc3c(cn2)C2(CC2)CN(C[C@H](O)CN2CCc4ccccc4C2)C3=O)CC1` [Example 1, (R)-7′-((1-acetylpiperidin-4-yl)amino)-2′-(3-(3,4-dihydroisoquinolin-2(1H)-yl)-2-hydroxypropyl)-2′,3′-dihydro-1′H-spiro[cyclopropane-1,4′-[2,6]naphthyridin]-1′-one], the IC50 was found to be 8.9 nM.

Consider `CC(=O)N1CCC(Nc2cc(C(=O)NC[C@H](O)CN3CCc4ccccc4C3)ncn2)CC1` [Compound A, (S)-6-((1-Acetylpiperidin-4-yl)amino)-N-(3-(3,4-dihydroisoquinolin-2(1H)-yl)-2-hydroxypropyl)pyrimidine-4-carboxamide], for which the IC50 is 73.2 nM.

For `CC(=O)N1CC2(CC(Nc3cc4c(cn3)C3(CC3)CN(C[C@H](O)CN3CCc5ccccc5C3)C4=O)C2)C1` [Example 2, (R)-7′-((2-acetyl-2-azaspiro[3.3]hept-6-yl)amino)-2′-(3-(3,4-dihydroisoquinolin-2(1H)-yl)-2-hydroxypropyl)-2′,3′-dihydro-1′H-spiro[cyclopropane-1,4′-[2,6]naphthyridin]-1-one], it took 5.02 nM to reach half-maximal inhibition (IC50).

With `CC(=O)N1CCC(Nc2ccc3c(c2)C(=O)N(C[C@H](O)CN2CCc4ccccc4C2)CC32CC2)CC1` [Compound B, (R)-7′-((1-Acetylpiperidin-4-yl)amino)-2′-(3-(3,4-dihydroisoquinolin-2(1H)-yl)-2-hydroxypropyl)-2′,3′-dihydro-1′H-spiro[cyclopropane-1,4′-isoquinolin]-1′-one, reference compound], the midpoint of inhibition, the IC50, lay at 15.3 nM.

By IC50 is commonly meant the point on the concentration scale where inhibition reaches its midpoint. A lower IC50 goes with greater potency.
